Test results from patent US11389449B2, “Treatment of metabolic syndrome with an sGC stimulator” (Cyclerion Therapeutics, Inc., priority 2017, dated 2022).

Legend:
[1] = system: ZSF1 obese rats; assay: Oral glucose tolerance test (OGTT) and fasting glucose in ZSF1 rats at week 10; assay type: in vivo, rat; details: enalapril 3 mpk
Protocol: Male ZSF1 rats (body weight 400-430 grams (lean control) and 500-605 grams (obese) at baseline) were used for this study. All animals were housed in a room under controlled conditions of temperature (72±8° F.), relative humidity of 30-70% and a 12-hour light-dark cycle (lights on at 6:00 AM and off at 6:00 PM) at a fully AAALAC accredited, USDA registered and OLAW assured laboratory animal research facility. All animals were allowed free access to rodent chow (Purina 5008+/−test articles) and water (+/−enalapril).
(§1) Blood and 24-hour urine samples were obtained from all animals at day 0 (15 weeks of age; prior to the initiation of enalapril treatment). Animals in Groups 3, 7, 8 and 9 were placed on drinking water containing enalapril and kept on Purina 5008 rodent chow (C13000). Animals in Group 1, 2, 4, 5 and 6 were kept on Purina 5008 rodent chow and drinking water. Ten days after the initiation of enalapril treatment, blood and 24-hour urine samples were collected from all animals. After day 10 blood and urine collections, animals in Groups 4, 5 and 6 received Compound I at 1, 3 and 10 mg/kg/day, respectively for 11 weeks. In addition to enalapril treatment, animals in Groups 7, 8 and 9 received Compound I at 1, 3 and 10 mg/kg/day, respectively for an additional 11 weeks.
(§2) 10 weeks after the initiation of Compound I treatment, animals (27 weeks of age) were fasted for 18 hours. Serum samples were collected for the measurement of fasting insulin levels. Serum insulin levels were determined using the Rat Insulin ELISA kit (Cat #ELR-Insulin, RayBiotech, Inc.)
For OGTT, animals were given glucose solution (50% Dextrose) at 2 g/kg via oral gavage. Blood samples were collected prior to oral glucose administration (0 minute) and 30, 60, 90, 120 and 180 minutes after administration. Blood glucose levels were measured using a standard blood glucose monitoring system (AlphaTRAK). The blood glucose reading at time 0 (prior to glucose administration) corresponds to the fasting glucose measurement.
(§3) The data are expressed as mean±SEM. […] One-tailed tests were used for comparison of variables. Statistical significance is indicated by P values less than 0.05.

[2] = system: ZSF1 obese rats; assay: Fasting serum insulin in ZSF1 rats (Rat Insulin ELISA); assay type: in vivo; details: week 10, enalapril 3 mpk
Description: as §1, §2, §3

[3] = system: ZSF1 obese rats; assay: ZSF1 rat study: serum clinical chemistry (cholesterol, triglycerides), body weight, clinical observations; assay type: in vivo; details: ZSF1 obese rats; enalapril 3 mg/kg/day; Animal #8; 3 days after initiation
Description: as §1
Body weight and 24-hour water intake were obtained at least once every other week. 24-hour food intake was measured at baseline and week 8.
Plasma (for biomarker) and serum (for clinical chemistry analysis) samples were collected from all treatment groups at baseline, day 10, weeks 5 and 9 prior to placing the animals into the metabolic cages. Plasma samples were obtained from Groups 3-9 for measurement of compound exposure levels at weeks 5 and 11. Terminal plasma and serum samples were obtained at necropsy.
For serum samples, blood was collected in serum separator tubes, maintained at room temperature for at least 30 minutes and then centrifuged at 6000 rpm for 10 minutes. Serum samples were stored at −80° C. until analysis. Urine and serum samples were analyzed using the Randox Daytona Clinical Chemistry Analyzer. All measurements were performed in accordance with manufacturer's instructions.
Animal #8 (in Group 3, ZSF1—enalapril 3 mg/kg/day) was found dead 3 days after the initiation of enalapril treatment.

In the case of CCOC(=O)[C@H](CCc1ccccc1)N[C@@H](C)C(=O)N1CCC[C@H]1C(=O)O [enalapril, reference compound], the “Fasting Blood Glucose (0 minute)” value [1] is reported as 255 ± 13 mg/dL, the “OGTT Area Under Curve (AUC)” value [1] is reported as 84459 ± 1409 and the “OGTT Blood Glucose 120 minutes” value [1] is reported as 452 ± 10 mg/dL. For the same compound, the “OGTT Blood Glucose 180 minutes” value [1] was 435 ± 9 mg/dL, the “Fasting Insulin” value [2] was 11.4 ± 1.7 μIU/mL and the clinical observation [3] was “found dead”.
